# Results published in US9278981B2, “Compounds and compositions for inhibiting the activity of ABL1, ABL2 and BCR-ABL1” (Novartis AG, priority 2012, dated 2016).
# Columns and labels:
# [1] = biological target: T1, ABL1 (64-515) (Homo sapiens (Human), UniProt P00519); assay: Radio ABL1 (64-515) assay (radiometric filter-binding); format: biochemical
# [2] = biological target: T1, ABL1 (64-515); assay: Caliper ABL1 (64-515) assay (microfluidic mobility shift); format: biochemical
# T1 sequence (P00519 64-515): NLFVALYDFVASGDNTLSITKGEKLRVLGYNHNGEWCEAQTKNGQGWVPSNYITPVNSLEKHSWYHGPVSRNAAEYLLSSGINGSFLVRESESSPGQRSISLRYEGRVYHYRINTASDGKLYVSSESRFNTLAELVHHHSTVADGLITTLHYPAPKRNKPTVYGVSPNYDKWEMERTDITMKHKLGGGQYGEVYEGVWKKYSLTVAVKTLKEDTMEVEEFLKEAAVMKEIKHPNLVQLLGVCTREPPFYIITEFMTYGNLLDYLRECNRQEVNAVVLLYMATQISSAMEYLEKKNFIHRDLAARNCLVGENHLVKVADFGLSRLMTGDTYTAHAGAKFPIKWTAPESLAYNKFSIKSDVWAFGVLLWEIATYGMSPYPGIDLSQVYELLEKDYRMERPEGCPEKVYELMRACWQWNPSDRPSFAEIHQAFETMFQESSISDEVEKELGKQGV
Compound,IC50 [1] [nM],IC50 [2] [nM]
"O=C(Nc1ccc(OC(F)(F)F)cc1)c1cnc(N2CC(CO)C2)c(-c2cccnc2)c1 [Example 137, 2-(3-(Hydroxymethyl)azetidin-1-yl)-N-(4-(trifluoromethoxy)phenyl)-[3,3′-bipyridine]-5-carboxamide]",6,0.6
"O=C(Nc1ccc(SC(F)(F)F)c(F)c1)c1cnc(N2CC[C@@H](O)C2)c(-c2cncc(F)c2)c1 [Example 206, (R)-5′-Fluoro-N-(3-fluoro-4-((trifluoromethyl)thio)phenyl)-2-(3-hydroxypyrrolidin-1-yl)-[3,3′-bipyridine]-5-carboxamide]",6,0.5
"O=C(Nc1ccc(SC(F)F)cc1)c1cnc(N2CC[C@@H](O)C2)c(-c2cncnc2)c1 [Example 211, (R)—N-(4-((Difluoromethyl)thio)phenyl)-6-(3-hydroxypyrrolidin-1-yl)-5-(pyrimidin-5-yl)nicotinamide]",11,3.3
"CCN(CCO)c1ncc(C(=O)Nc2ccc(OC(F)(F)F)cc2)cc1-c1cncnc1 [Example 156, 6-(Ethyl(2-hydroxyethyl)amino)-5-(pyrimidin-5-yl)-N-(4-(trifluoromethoxy)phenyl)nicotinamide]",5,1.7
"Cc1ccc(-c2cc(C(=O)Nc3ccc(OC(F)(F)C(F)F)cc3)cnc2N2CC[C@@H](O)C2)cn1 [Example 213, (R)-2-(3-Hydroxypyrrolidin-1-yl)-6′-methyl-N-(4-(1,1,22-tetrafluoroethoxy)phenyl)-[3,3′-bipyridine]-5-carboxamide]",7,16
"O=C(Nc1ccc(OC(F)(F)F)cc1)c1cnc(N2CCOCC2)c(-c2cncnc2)c1 [Example 148, 6-Morpholino-5-(pyrimidin-5-yl)-N-(4-(trifluoromethoxy)phenyl)nicotinamide]",3,2.5
CC(F)(F)Oc1ccc(NC(=O)c2cnc(N3CC[C@@H](O)C3)c(-c3cncc(C#N)c3)c2)cc1 [Example 276],3,6.8
"N#Cc1cncc(-c2cc(C(=O)Nc3ccc(OC(F)(F)F)cc3)cnc2N2CC[C@@H](O)C2)c1 [Example 54, (R)-5′-Cyano-2-(3-hydroxypyrrolidin-1-yl)-N-(4-(trifluoromethoxy)phenyl)-[3,3′-bipyridine]-5-carboxamide]",5,0.9
CN(C)C1CN(c2ncc(C(=O)Nc3ccc(OC(F)(F)F)cc3)cc2-c2cncnc2)C1 [Example 232],6,5.3
CC(F)(F)Oc1ccc(NC(=O)c2cnc(N3CC[C@@H](O)C3)c(-c3cncc(F)c3)c2)cc1 [Example 275],5,2.8
"O=C(Nc1ccc(SC(F)(F)F)cc1)c1cnc(N2CC[C@H](CO)C2)c(-c2cncnc2)c1 [Example 189, (S)-6-(3-(Hydroxymethyl)pyrrolidin-1-yl)-5-(pyrimidin-5-yl)-N-(4-((trifluoromethyl)thio)phenyl)nicotinamide]",3,1
"N#Cc1cncc(-c2cc(C(=O)Nc3ccc(OC(F)(F)F)c(F)c3)cnc2N2CC[C@@H](O)C2)c1 [Example 200, (R)-5′-Cyano-N-(3-fluoro-4-(trifluoromethoxy)phenyl)-2-(3-hydroxypyrrolidin-1-yl)-[3,3′-bipyridine]-5-carboxamide]",4,1.2
"O=C(Nc1ccc(OC(F)(F)F)cc1)c1cnc(N2CC[C@@H](O)C2)c(-c2cc(F)nc(F)c2)c1 [Example 242, (R)-2′,6′-Difluoro-2-(3-hydroxypyrrolidin-1-yl)-N-(4-(trifluoromethoxy)phenyl)-[3,4′-bipyridine]-5-carboxamide]",6,4.5
"O=C(Nc1ccc(OC(F)(F)F)cc1)c1cnc(N2CC[C@@H](O)C2)c(-c2cc(F)cc(F)c2)c1 [Example 61, (R)-5-(3,5-Difluorophenyl)-6-(3-hydroxypyrrolidin-1-yl)-N-(4-(trifluoromethoxy)phenyl)nicotinamide]",4,0.5
NC1CN(c2ncc(C(=O)Nc3ccc(OC(F)(F)Cl)cc3)cc2-c2cncnc2)C1 [Example 259],5.1,< 0.13
"Cc1ncc(-c2cc(C(=O)Nc3ccc(OC(F)(F)F)cc3)cnc2N2CC[C@H](CO)C2)cc1F [Example 87, (S)-5′-Fluoro-2-(3-(hydroxymethyl)pyrrolidin-1-yl)-6′-methyl-N-(4-(trifluoromethoxy)phenyl)-[3,3′-bipyridine]-5-carboxamide]",6,0.7
"Nc1ncc(-c2cc(C(=O)Nc3ccc(OC(F)(F)F)cc3)cnc2N2CC[C@@H](O)C2)cn1 [Example 38, (R)-5-(2-Aminopyrimidin-5-yl)-6-(3-hydroxypyrrolidin-1-yl)-N-(4-(trifluoromethoxy)phenyl)nicotinamide]",4,1.4
"CCN(CCO)c1ncc(C(=O)Nc2ccc(SC(F)(F)F)cc2)cc1-c1cncc(F)c1 [Example 196, 2-(Ethyl(2-hydroxyethyl)amino)-5′-fluoro-N-(4-((trifluoromethyl)thio)phenyl)-[3,3′-bipyridine]-5-carboxamide]",5.1,0.7
"N[C@]1(C(F)(F)F)CCN(c2ncc(C(=O)Nc3ccc(OC(F)(F)Cl)cc3)cc2-c2cncnc2)C1 [Example 289, (R)-6-(3-Amino-3-(trifluoromethyl)pyrrolidin-1-yl)-N-(4-(chlorodifluoromethoxy)phenyl)-5-(pyrimidin-5-yl)nicotinamide]",3,0.7

# Now from value to compound:
IC50 [1] [nM],IC50 [2] [nM],Compound
1.9,< 0.13,"O=C(Nc1ccc(OC(F)(F)Cl)cc1)c1cnc(N2CCC(F)(F)C2)c(-c2cncnc2)c1 [Example 247, N-(4-(Chlorodifluoromethoxy)phenyl)-6-(3,3-difluoropyrrolidin-1-yl)-5-(pyrimidin-5-yl)nicotinamide]"
< 3,0.6,"Cc1ccc(-c2cc(C(=O)Nc3ccc(OC(F)(F)F)cc3)cnc2N2CC[C@H](CO)C2)cn1 [Example 82, (S)-2-(3-(Hydroxymethyl)pyrrolidin-1-yl)-6′-methyl-N-(4-(trifluoromethoxy)phenyl)-[3,3′-bipyridine]-5-carboxamide]"
< 3,0.8,"Cc1ccc(-c2cc(C(=O)Nc3ccc(OC(F)(F)F)cc3)cnc2N2CC[C@H](O)C2)cn1 [Example 34, (S)-2-(3-Hydroxypyrrolidin-1-yl)-6′-methyl-N-(4-(trifluoromethoxy)phenyl)-[3,3′-bipyridine]-5-carboxamide]"
< 3,2.7,"O=C(Nc1ccc(OC(F)(F)F)cc1)c1ccc(N2CC[C@@H](O)C2)c(-c2cccnc2)c1 [Example 5, (R)-4-(3-Hydroxypyrrolidin-1-yl)-3-(pyridin-3-yl)-N-(4-(trifluoromethoxy)phenyl)benzamide]"
< 3,2.9,"O=C(Nc1ccc(OC(F)(F)F)cc1)c1cnc(N2CC[C@@H](O)C2)c(-c2ccc(C(F)(F)F)nc2)c1 [Example 51, (R)-2-(3-Hydroxypyrrolidin-1-yl)-N-(4-(trifluoromethoxy)phenyl)-6′-(trifluoromethyl)-[3,3′-bipyridine]-5-carboxamide]"
2,0.8,"CN(CCO)c1ncc(C(=O)Nc2ccc(OC(F)(F)Cl)cc2)cc1-c1cncnc1 [Example 179, N-(4-(Chlorodifluoromethoxy)phenyl)-6-((2-hydroxyethyl)(methyl)amino)-5-(pyrimidin-5-yl)nicotinamide]"
< 3,1.5,"CC(C)(O)C1CCN(c2ncc(C(=O)Nc3ccc(OC(F)(F)F)cc3)cc2-c2cncnc2)C1 (stereo not shown) [Example 113, 6-(3-(2-Hydroxypropan-2-yl)pyrrolidin-1-yl)-5-(pyrimidin-5-yl)-N-(4-(trifluoromethoxy)phenyl)nicotinamide]"
0.2,10,"N[C@]1(C(F)(F)F)CCN(c2ncc(C(=O)Nc3ccc(OC(F)(F)F)cc3)cc2-c2cncnc2)C1 [Example 223, (R)-6-(3-Amino-3-(trifluoromethyl)pyrrolidin-1-yl)-5-(pyrimidin-5-yl)-N-(4-(trifluoromethoxy)phenyl)nicotinamide]"
< 3,1.5,"CC1(O)CN(c2ncc(C(=O)Nc3ccc(OC(F)(F)F)cc3)cc2-c2cncc(F)c2)C1 [Example 132, 5′-Fluoro-2-(3-hydroxy-3-methylazetidin-1-yl)-N-(4-(trifluoromethoxy)phenyl)-[3,3′-bipyridine]-5-carboxamide]"
2,2.6,"NC1CN(c2ncc(C(=O)Nc3ccc(OC(F)(F)F)cc3)cc2-c2cncc(F)c2)C1 [Example 238, 2-(3-Aminoazetidin-1-yl)-5′-fluoro-N-(4-(trifluoromethoxy)phenyl)-[3,3′-bipyridine]-5-carboxamide]"
< 0.1,0.6,O=C(Nc1ccc(OC(F)(F)Cl)cc1)c1cnc(N2Cc3cn[nH]c3C2)c(-c2cncnc2)c1 [Example 254]
2,0.4,"O=C(Nc1ccc(SC(F)(F)Cl)cc1)c1cnc(N2CC[C@@H](O)C2)c(-c2cncnc2)c1 [Example 217, (R)—N-(4-((Chlorodifluoromethyl)thio)phenyl)-6-(3-hydroxypyrrolidin-1-yl)-5-(pyrimidin-5-yl)nicotinamide]"
< 0.1,0.4,N#Cc1ccncc1-c1cc(C(=O)Nc2ccc(OC(F)(F)Cl)cc2)cnc1N1CC[C@@H](O)C1 [Example 274]
< 3,2,"CCN(CCO)c1ncc(C(=O)Nc2ccc(OC(F)(F)F)cc2)cc1-c1cncc(F)c1 [Example 157, 2-(Ethyl(2-hydroxyethyl)amino)-5′-fluoro-N-(4-(trifluoromethoxy)phenyl)-[3,3′-bipyridine]-5-carboxamide]"
2,1.4,"N#Cc1ccncc1-c1cc(C(=O)Nc2ccc(OC(F)(F)F)cc2)cnc1N1CC[C@@H](O)C1 [Example 240, (R)-4′-Cyano-2-(3-hydroxypyrrolidin-1-yl)-N-(4-(trifluoromethoxy)phenyl)-[3,3′-bipyridine]-5-carboxamide]"
2.7,1.1,O=C(Nc1ccc(OC(F)(F)Cl)cc1)c1cnc(N2CC(O)C2)c(-c2cncnc2)c1 [Example 258]
